We go through seven molecules from US6423718B1, “4,4-disubstituted-3,4-dihydro-2(1H)-quinazolinones useful as HIV reverse transcriptase inhibitors” (Bristol-Myers Squibb Pharma Company, priority 1997, dated 2002).

≈ marks a conversion by molar mass, not a printed value.

One data set has as its system HIV-1 (RF). The experiment in a line: HIV RNA assay: microplate based compound evaluation in HIV-1 infected MT-2 cells (IC90). The format is cell-based. Particulars: Human immunodeficiency virus 1, MT2, 72 h; HIV-1 (RF) infected MT-2 cells, 3 days of culture; virus dilutions selected to standardize the inoculum; read-out: IC90 value (concentration of compound required to reduce the HIV RNA level by 90%). Here is the method: Plasmid pDAB 72 containing both gag and pol sequences of BH10 (bp 113-1816) cloned into PTZ 19R was prepared according to Erickson-Viitanen et al. AIDS Research and Human Retroviruses 1989, 5, 577. The plasmid was linearized with Ban HI prior to the generation of in vitro RNA transcripts using the Riboprobe Gemini system II kit (Promega) with T7 RNA polymerase. Synthesized RNA was purified by treatment with RNase free DNAse (Promega), phenol-chloroform extraction, and ethanol precipitation. RNA transcripts were dissolved in water, and stored at −70° C. The concentration of RNA was determined from the A260.
Biotinylated capture probes were purified by HPLC after synthesis on an Applied Biosystems (Foster City, Calif.) DNA synthesizer by addition of biotin to the 5′ terminal end of the oligonucleotide, using the biotin-phosphoramidite reagent of Cocuzza, Tet. Lett. 1989, 30, 6287. […]
MT-2 and MT-4 cells were maintained in RPMI 1640 supplemented with 5% fetal calf serum (FCS) for MT-2 cells or 10% FCS for MT-4 cells, 2 mM L-glutamine and 50 μg/mL gentamycin, all from Gibco. […] Infectious titers of HIV-1 (RF) stocks were 1-3×10^7 PFU (plaque forming units)/mL as measured by plaque assay on MT-2 cells (see below). […]
Turning to `Nc1ccn([C@H]2CC[C@@H](CO)O2)c(=O)n1` [ddC, 2′,3′-dideoxycytidine], the IC90 worked out at 0.2 µg/mL (≈ 0.947 µM).

Test system in a further data set: not given
Assay: not given
Settings: not given
Broadly, the melting point is the temperature of the solid-liquid transition. `COc1ccc2c(c1)C(C#CC1CC1)(C(F)(F)F)NC(=O)N2` (racemic) [Example 6, (+/−)-4-Cyclopropylethynyl-6-methoxy-4-trifluoromethyl-3,4-dihydro-2(1H)-quinazolinone] showed a melting point of 208 °C. Molecule `CC(C)CCC1(C(F)(F)F)NC(=O)Nc2ccc(F)c(F)c21` (racemic) [Example 15, (+/−)-5,6-Difluoro-4-isopentyl-4-trifluoromethyl-3,4-dihydro-2(1H)-quinazolinone] returned a melting point of 192 to 193 °C.

Turning to `O=C1Nc2ccc(F)cc2C(C#CC2CC2)(C(F)(F)F)N1` (racemic) [Example 17, (+/−)-4-Cyclopropylethynyl-6-fluoro-4-trifluoromethyl-3,4-dihydro-2(1H)-quinazolinone], the melting point came to 155 °C. Turning to `CC(C)CCC1(C(F)(F)F)NC(=O)Nc2ccc(F)cc21` (racemic) [Example 22, (+/−)-6-Fluoro-4-isopentyl-4-trifluoromethyl-3,4-dihydro-2(1H)-quinazolinone], the melting point came out at 179 °C. Still for that read-out and setting: with `CCCCC1(C(F)(F)F)NC(=O)Nc2ccc(F)cc21` (racemic) [Example 24, (+/−)-4-Butyl-6-fluoro-4-trifluoromethyl-3,4-dihydro-2(1H)-quinazolinone] the figure was 198 °C; with `O=C1Nc2ccc(F)cc2C(CCc2ccccc2)(C(F)(F)F)N1` (racemic) [Example 25, (+/−)-6-Fluoro-4-phenylethyl-4-trifluoromethyl-3,4-dihydro-2(1H)-quinazolinone], 98 °C.
